Test results taken from patent US8962621B2 (Shanghai Institute of Pharmaceutical Industry, priority 2010, dated 2015).

Tests used:
[1] = biological target: DA Transporter (hDAT) (Homo sapiens, UniProt Q01959); assay: Inhibition of [3H]-DA reuptake in HEK 293 cells stably expressing hDAT; conditions: HEK293, read-out: DA Reuptake Inhibition
[2] = system: DA reuptake; assay: Oxidation tremor test (oxotremorine-induced tremors); assay type: in vivo, mice
Source text: (§1) Tests of the 5-hydroxytryptophan (DL-5-HTP) potentiation in mice, Yohimbine toxicity enhancement in mice and oxidation tremors can verify a compound's inhibition effect on 5-HT, NA and DA reuptake. Compound VI-2 is selected for the tests.
a) Principles • The pathogenesis of paralysis agitans is primarily related to the imbalance between DA function and Ach function. […] If the same function can be exerted in vivo, VI-2 will be able to partially antagonize the symptoms induced by an M receptor agonist.
b) Test Method • This test consists of 6 experimental groups: Model control group, VI-2-1 (300 mg/kg) group, VI-2-2 (200 mg/kg) group, VI-2-3 (120 mg/kg) group, VI-2-4 (60 mg/kg) group and VI-2-5 (30 mg/kg) group. For each VI-2 group, the compound at the corresponding dosage is administrated orally, or as in the case of the Model control group, N.S is given to the animals. One hour after the treatment, oxotremorine (0.5 mg/kg, 0.1 mL/10 g) is administrated by intraperitoneal injection to the mice in all groups. Responses of the mice are observed.

[3] = Acute toxicity experiment (single oral gavage); conditions: mouse, in vivo, po
[4] = biological target: 5-HT Transporter (hSERT) (Homo sapiens, UniProt P31645); assay: Inhibition of [3H]-5-HT reuptake in HEK 293 cells stably expressing hSERT;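 note: compound preincubated 10 min at 30 °C, then 10 min uptake, filter-bound radioactivity counted by scintillation, inhibition relative to total (blank) minus non-specific (positive control) uptake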
5-HT Transporter (hSERT), sequence (P31645 whole entry): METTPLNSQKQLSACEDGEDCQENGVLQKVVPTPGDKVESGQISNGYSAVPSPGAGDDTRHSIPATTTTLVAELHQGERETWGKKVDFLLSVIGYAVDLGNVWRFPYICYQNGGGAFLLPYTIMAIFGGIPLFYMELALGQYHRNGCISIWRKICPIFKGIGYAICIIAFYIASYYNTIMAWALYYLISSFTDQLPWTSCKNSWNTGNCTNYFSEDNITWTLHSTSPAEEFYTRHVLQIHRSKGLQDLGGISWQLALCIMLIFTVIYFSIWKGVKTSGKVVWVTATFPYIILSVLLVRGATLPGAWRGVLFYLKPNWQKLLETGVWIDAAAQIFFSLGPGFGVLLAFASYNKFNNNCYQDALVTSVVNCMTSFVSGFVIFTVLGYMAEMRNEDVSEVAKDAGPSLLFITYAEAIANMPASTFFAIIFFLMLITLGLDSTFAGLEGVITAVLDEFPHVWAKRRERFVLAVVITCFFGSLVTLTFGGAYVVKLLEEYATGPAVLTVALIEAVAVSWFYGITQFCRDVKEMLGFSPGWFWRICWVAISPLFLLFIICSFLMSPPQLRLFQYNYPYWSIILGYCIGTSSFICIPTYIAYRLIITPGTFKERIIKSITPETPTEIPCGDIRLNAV

[5] = system: 5-HT reuptake; assay: 5-Hydroxytryptophan (DL-5-HTP) potentiation in mice (head twitches); assay type: in vivo; conditions: for Frequency of head twitches 0 (number of mice) / Frequency of head twitches I (number of mice) / Frequency of head twitches II (number of mice) / Frequency of head twitches III (number of mice): Pargyline 75 mg/kg s.c., DL-5-HTP i.v.
Source text: as §1
a) Principles • Taking DL-5-HTP as the precursor of 5-HT, the MAOs inhibitor Pargyline can inhibit the enzymatic degradation […]. While in mice, characteristic symptoms—head twitches can be observed.
b) Test Method • Three different dosages of VI-2 are used: 30, 15 and 7.5 mg/kg. The mouse is treated as follows: first, intraperitoneal injection of the compound, 0.2 mL/10 g; 30 min later, subcutaneous injection of Pargyline, 75 mg/kg; and 90 min later, intraveneous injection of DL-5-HTP. The induced head twitches of the mouse are observed 15 min later.

[6] = system: Histidine auxotroph mutant of mouse salmonella TA97, TA98, TA100 and TA102; assay type: cell-based
Source text: 5. […] 6. Bacterial Reverse Mutation Test of Compounds VI-1 VI-2 and VI16 • Strains: Histidine auxotroph mutant of mouse salmonella TA97, TA98, TA100 and TA102. • Test method: The one reported in Maron DM et al: (1983) Mutay Res. 113, 173-216 is used. • Results: The test consists of two parts, i.e., −S9 and +S9. […] No bacteriostatic actions to all the strains are observed at all the other dosages, and the growth background is good.

[7] = system: male ICR mice; assay: Mice tail suspension test; assay type: in vivo
Protocol: Through intragastric administration, 10 mL·kg^−1 of each sample (physiological saline for the blank control group) is administrated. After 1 h of the treatment, the mouse is held with a medical tape at a position around 2 cm from the tip of its tail and hung upside-down in the suspension cage with its head 5 cm away from the bottom of the cage. The observation starts right after the mouse is suspended for 2 min and continues for 4 min. The time during which the mouse is immobile (no struggling or only tiny movements of its body/limbs) in this 4 min is accumulated (IT, immobility time). The percentage of the improvement is calculated according to the equation: Improvement %=[IT (blank control group)−IT (compound treatment group)]/IT (blank control group)×100%

[8] = system: male Kunming mice; assay: Mice forced swimming test; assay type: in vivo
Protocol: Through intragastric administration, 10 mL·kg^−1 of each sample (physiological saline for the blank control group) is administrated. The mice are pre-screened for swimming one day before the actual test. The mouse is placed into water (25° C., 10 cm deep) in a glass tank (height 20 cm, diameter 14 cm) and forced to swim for 6 min. Those who stop swimming at around 70-160 s are chosen for the actual test which starts 24 h later. After 1 h of the administration, the forced swimming test is performed by placing the animal into the above-mentioned environment to swim for 6 min. The accumulative immobility time for the last 4 min is recorded. Data is statistically analyzed with t-test.

DA Transporter (hDAT), sequence (Q01959 whole entry): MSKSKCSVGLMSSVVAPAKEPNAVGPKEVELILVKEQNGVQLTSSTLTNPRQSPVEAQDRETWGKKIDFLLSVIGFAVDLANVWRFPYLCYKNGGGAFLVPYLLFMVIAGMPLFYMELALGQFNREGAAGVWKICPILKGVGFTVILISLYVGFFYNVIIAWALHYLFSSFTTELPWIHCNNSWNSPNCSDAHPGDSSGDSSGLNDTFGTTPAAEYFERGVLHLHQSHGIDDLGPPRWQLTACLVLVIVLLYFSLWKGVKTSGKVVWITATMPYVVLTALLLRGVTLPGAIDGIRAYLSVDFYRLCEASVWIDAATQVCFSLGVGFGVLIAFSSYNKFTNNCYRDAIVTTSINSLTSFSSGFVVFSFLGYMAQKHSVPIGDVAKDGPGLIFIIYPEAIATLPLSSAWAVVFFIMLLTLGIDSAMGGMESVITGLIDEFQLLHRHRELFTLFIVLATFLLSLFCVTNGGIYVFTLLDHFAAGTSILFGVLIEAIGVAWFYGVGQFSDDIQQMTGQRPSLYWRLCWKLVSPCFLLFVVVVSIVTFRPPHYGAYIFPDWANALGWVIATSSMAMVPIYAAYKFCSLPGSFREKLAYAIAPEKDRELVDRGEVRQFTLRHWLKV

With `CN(C)CCC(c1ccc(Cl)c(Cl)c1)N1CCCC1` (centres unmarked) [VI-2, N,N-dimethyl-3-(3,4-dichlorophenyl)-3-(pyrrolidin-1-yl)-propylamine] the inhibition at 10 µM [1] was 103%, the “anti-tremor effect (in words)” value ([2]; 30 mg/kg oral, oxotremorine 0.5 mg/kg i.p. 1 h later) was “No anti-tremor effect is observed” and the “Side overturn (in words)” value ([2]; 120 mg/kg or lower) was “rarely observed”. The “Side overturn (in words)” value ([2]; 300 mg/kg and 200 mg/kg oral) was “Side overturn of different extent is observed”, the “Activity of the mice (in words)” value ([2]; 300→200→120→60→30 mg/kg = Model) was “The best activity of the mice is observed in the 300 mg/kg group” and the “intensity of tremors versus dose (in words)” value ([2]; Model→30→60→120→200→300 mg/kg from high to low) was “Clear dose-effect relationship is observed”. The “antagonism of the tremor symptom (in words)” value ([2]; by enhancing the function of DA) was “can partially antagonize the tremor symptom”, the “doses giving improvement of tremor (in words)” value ([2]; oral 30-300 mg/kg, oxotremorine 0.5 mg/kg i.p.) was “An improvement is only observed at doses up to 120 mg/kg” and the “enhancement of DA function at therapeutic doses (in words)” value ([2]; therapeutic doses (10-20 mg/kg)) was “no such enhancement”. The LD50 [3] was 950 mg/kg, the “inhibition effect towards the reuptake of 5-HT (in words)” value [4] was “relatively strong inhibition effect” and the inhibition at 10 µM ([4]; HEK293, read-out: 5-HT Reuptake Inhibition) was 94.8%. For the same molecule, the “Frequency of head twitches 0 (number of mice)” value ([5]; 7.5 mg/kg intraperitoneal) was 1, the “Frequency of head twitches I (number of mice)” value ([5]; 7.5 mg/kg intraperitoneal) was 3 and the “Frequency of head twitches II (number of mice)” value ([5]; 7.5 mg/kg intraperitoneal) was 6. The “Frequency of head twitches III (number of mice)” value (shortened to “Frequency of head twitches III”) ([5]; 7.5 mg/kg intraperitoneal) was 0, the “Frequency of head twitches 0 (number of mice)” value ([5]; 15 mg/kg intraperitoneal) was 0 and the “Frequency of head twitches I (number of mice)” value ([5]; 15 mg/kg intraperitoneal) was 0. For the same molecule, the “Frequency of head twitches II (number of mice)” value ([5]; 15 mg/kg intraperitoneal) was 4, the “Frequency of head twitches III” value ([5]; 15 mg/kg intraperitoneal) was 6 and the “Frequency of head twitches 0 (number of mice)” value ([5]; 30 mg/kg intraperitoneal) was 0. For the same molecule, the “Frequency of head twitches I (number of mice)” value ([5]; 30 mg/kg intraperitoneal) was 0, the “Frequency of head twitches II (number of mice)” value ([5]; 30 mg/kg intraperitoneal) was 0 and the “Frequency of head twitches III” value ([5]; 30 mg/kg intraperitoneal) was 10. The “enhancement of the effect of 5-HTP (in words)” value ([5]; 30, 15 and 7.5 mg/kg, significant dose-effect relationship) was “significantly enhance the effect of 5-HTP”, the bacteriostatic action ([6]; 5000 μg per dish, TA98 without S9 and TA97 with S9, none at other dosages) was “bacteriostatic action is showed” and the Ames test result ([6]; TA97, TA98, TA100, TA102, with or without S9, all test dosages) was “negative”. The “IT (sec), immobility time” value ([7]; 20.0 mg/kg single intragastric administration, 1 h before test, 4 min observation, n=12) was 36.19 ± 25.78 s, the “Improvement (%)” value ([7]; 20.0 mg/kg single oral administration, versus blank control IT) was 63.52% and the “effect on immobility time in the tail suspension test (in words)” value ([7]; 20 mg/kg, efficacy similar to Venlafaxine) was “significant reduction in the immobility time”. For the same molecule, the “effect in the forced swimming test (in words)” value ([8]; 20 mg/kg) was “significant reduction in the immobility time” and the “IT (sec), immobility time” value ([8]; 20.0 mg/kg single intragastric administration, 1 h before test, last 4 min of 6 min, n=12) was 74.9 ± 37.8 s.
